Experimental data as given in patent US5885987A, “Phenylene derivatives” (Kowa Co., Ltd., priority 1996, dated 1999).
Read-outs that look alike come from different tables or passages of the source.

Key:
H1 receptor = biological target: T1, H1 receptor (Cavia porcellus, UniProt P31389); test: H1 receptor binding inhibition test ([^3 H]mepyramin, guinea pig cerebromembranous protein); conditions: for inhibition at 10 µM: b: 10 μM; for inhibition at 10 µM / inhibition at 100 µM: read-out: H1 receptor (%), inhibition rate; for Kd: read-out: H1 receptor, dissociation constant KD
T1 construct: guinea pig cerebromembranous protein; from tissue; host or cells: guinea pig cerebral (brain) membranes
T1 sequence (P31389 whole entry): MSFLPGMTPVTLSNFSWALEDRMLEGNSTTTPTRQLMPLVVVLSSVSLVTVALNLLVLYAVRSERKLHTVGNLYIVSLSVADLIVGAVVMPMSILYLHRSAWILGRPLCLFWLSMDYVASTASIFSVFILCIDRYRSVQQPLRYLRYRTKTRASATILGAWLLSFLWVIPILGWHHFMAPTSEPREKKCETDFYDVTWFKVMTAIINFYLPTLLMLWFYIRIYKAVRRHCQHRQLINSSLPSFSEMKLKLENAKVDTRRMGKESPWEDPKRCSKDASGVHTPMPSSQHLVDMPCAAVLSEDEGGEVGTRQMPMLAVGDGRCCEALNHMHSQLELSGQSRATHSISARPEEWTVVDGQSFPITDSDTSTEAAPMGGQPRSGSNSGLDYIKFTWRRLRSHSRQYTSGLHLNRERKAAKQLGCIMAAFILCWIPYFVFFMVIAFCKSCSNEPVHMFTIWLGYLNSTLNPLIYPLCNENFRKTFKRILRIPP
Description: 1) H1 Receptor Binding Inhibition Test
An ice-cooled phosphate buffer was added to terminate the reaction, followed by immediate filtration through a Wattman CF/C filter. The filter was washed twice with 20 ml aliquots of the ice-cooled buffer. The radioactivity of the residue was measured by a liquid scintillation counter. From a measurement value obtained without the addition of the test compound and measurements values obtained upon addition of the test compound at various concentrations, the dose-response of the inhibitory action of the test compound was measured and the 50% inhibitory concentration (IC50) was determined. Using the Cheng-Prusoff formula, a dissociation constant was calculated from the IC50. In a binding assay, 10^-4 M R(-)dimethindene was used for the measurement of a nonspecific binding.

LTD4 receptor = biological target: T2, LTD4 receptor (Cavia porcellus, UniProt Q2NNR5); test: LTD4 receptor binding inhibition test ([^3 H]leukotriene D4, guinea pig pulmomembranous protein); conditions: for Kd: read-out: LTD4 receptor, dissociation constant KD; for inhibition at 10 µM: b: 10 μM; for inhibition at 10 µM / inhibition at 100 µM: read-out: LTD4 receptor (%), inhibition rate; for inhibition at 100 µM: a: 100 μM
T2 construct: guinea pig pulmomembranous protein; from tissue; host or cells: guinea pig lung membranes
T2 sequence (Q2NNR5 1-340): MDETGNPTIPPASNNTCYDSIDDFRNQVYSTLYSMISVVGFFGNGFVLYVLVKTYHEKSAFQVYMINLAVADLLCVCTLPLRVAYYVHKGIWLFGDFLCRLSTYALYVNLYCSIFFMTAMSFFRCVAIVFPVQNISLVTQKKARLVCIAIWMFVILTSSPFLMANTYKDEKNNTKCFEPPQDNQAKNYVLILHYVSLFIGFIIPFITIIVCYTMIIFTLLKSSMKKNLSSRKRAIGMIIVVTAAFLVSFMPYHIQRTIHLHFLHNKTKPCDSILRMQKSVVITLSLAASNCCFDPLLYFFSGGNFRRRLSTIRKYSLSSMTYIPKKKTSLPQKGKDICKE
Description: 2) LTD4 Receptor Binding Inhibition Test
An ice-cooled tris hydrochloride/sodium chloride buffer (10 mM/100 mM, pH 7.5) was added to terminate the reaction, followed by immediate filtration through a Wattman CF/C filter. The filter was washed twice with 20 ml aliguots of the ice-cooled buffer. The radioactivity of the residue was measured by a liquid scintillation counter. […] In a binding assay, 2 μM leukotriene D4 was used for the measurement of a nonspecific binding.

[1] = 0.5 nM [^3 H]mepyramin, pH 7.5, 37° C., 30 minutes, calculated from IC50 with Cheng-Prusoff formula
[2] = 0.2 nM [^3 H]leukotriene D4, pH 7.5, 22° C., 30 minutes, calculated from IC50

Row | Compound | Kd (LTD4 receptor) [µM] | inhibition at 100 µM (H1 receptor; a: 100 μM) [%] | other results
1 | O=C1CSc2c(N=Cc3cccc(OCc4ccc5ccccc5n4)c3)cccc2N1 [Example 93, 8-[3-(2-quinolinylmethoxy)benzylidenamino]-3,4-dihydro-2H-1,4-benzothiazin-3-one] | 1.51 | – | inhibition at 10 µM (H1 receptor): 38%
2 | Cc1ccc(OC(=O)c2cccc(OCc3ccc4ccccc4n3)c2)c2cc(C#N)c(=O)[nH]c12 [Example 53, 3-cyano-8-methyl-5-[3-(2-quinolinylmethoxy)benzoyloxy]-1,2-dihydroquinolin-2-one] | 0.016 | 38 | –
3 | O=C1CCCc2cc(OCc3cccc(OCc4ncc5ccccc5n4)c3)ccc21 [Example 90, 6-[3-(2-quinazolinylmethoxy)benzyloxy]-1-tetralone] | 0.0129 | – | inhibition at 10 µM (H1 receptor): 8%
4 | O=C1CCc2cccc(OCc3ccc(OCc4ccc5ccccc5n4)cc3)c2N1 [Example 24, 8-[4-(2-Quinolinylmethoxy)benzyloxy]-1,2,3,4-tetrahydroquinolin-2-one] | 0.301 | – | Kd (H1 receptor): 25.8 µM
5 | O=C1CCc2ccc(OCc3cccc(OCc4nc5ccccc5s4)c3)cc2N1 [Example 41, 7-[3-(2-benzothiazolylmethoxy)benzyloxy]-1,2,3,4-tetrahydroquinolin-2-one] | – | – | Kd (H1 receptor): 128 µM; inhibition at 10 µM (LTD4 receptor): 34%
6 | CC1(C)C(=O)Nc2cc(OC(=O)c3ccc(OCc4ccc5ccccc5n4)cc3)ccc21 [Example 68, 3,3-Dimethyl-6-(4-(2-quinolinylmethoxy)benzoyloxy]-2,3-dihydro-1H-indol-2-one] | 0.428 | 28 | –
7 | 7-[3-(2-quinolinylmethoxy)benzyloxy]-2,3,4,5-tetrahydro-tetrazolo-[5,1-a][2]benzazepin [Example 87] | – | – | Kd (H1 receptor; [1]): 67.2 µM; Kd (LTD4 receptor; [2]): 0.0114 µM
8 | O=C1CCc2ccc(OCc3ccc(OCc4nc5ccccc5s4)cc3)cc2N1 [Example 42, 7-(4-(2-benzothiazolylmethoxy)benzyloxy]-1,2,3,4-tetrahydroquinolin-2-one] | – | – | Kd (H1 receptor): 83.6 µM; inhibition at 10 µM (LTD4 receptor): 17%
9 | CC1(C)C(=O)Nc2ccc(OCc3cccc(OCc4ccc5ccccc5n4)c3)cc21 [Example 14, 3,3'-Dimethyl-5-[3-(2-quinolinylmethoxy)benzyloxy]-2,3-dihydro-1H-indol-2-one] | 0.215 | 29 | –
10 | O=C1CCc2ccc(OCc3ccc(OCc4ccc5ccccc5n4)cc3)cc2N1 [Example 23] | 0.5 | 41 | –
11 | Cc1ccc(OCc2cccc(OCc3ccc4ccccc4n3)c2)c2c1NC(=O)CC2 [Example 5, 8-Methyl-5-[3-(2-quinolinylmethoxy)benzyloxy]-1,2,3,4-tetrahydroquinolin-2-one] | 0.316 | 57 | –
12 | O=C1CSc2cc(N=Cc3cccc(OCc4ccc5ccccc5n4)c3)ccc2N1 [Example 91, 7-[3-(2-quinolinylmethoxy)benzylidenamino]-3,4-dihydro-2H-1,4-benzothiazin-3-one] | – | – | Kd (H1 receptor): 0.12 µM; inhibition at 10 µM (LTD4 receptor): 37%
13 | CCOCCn1c(COc2ccc(COc3ccc4c(c3)SCC(=O)N4)cc2)nc2ccccc21 [Example 46, 7-[(N-ethoxyethylbenzimidazol-2-yl-methoxy)benzyloxy]-3,4-dihydro-2H-1,4-benzothiazin-3-one] | – | – | Kd (H1 receptor; [1]): 5.95 µM; Kd (LTD4 receptor; [2]): 6.4 µM
14 | O=C1NCCCc2cc(OCc3cccc(OCc4ccc5ccccc5n4)c3)ccc21 [Example 84, 7-[3-(2-quinolinylmethoxy)benzyloxy]-2,3,4,5-tetrahydro-1H-benz[c]azepin-1-one] | 0.026 | – | Kd (H1 receptor): 66.4 µM
15 | O=C1CCS(=O)(=O)c2cc(OCc3cccc(OCc4ccc5ccccc5n4)c3)ccc2N1 [Example 76] | – | – | Kd (H1 receptor): 122 µM; inhibition at 100 µM (LTD4 receptor): 0%
16 | O=C1Cc2c(cccc2OCc2cccc(OCc3ccc4ccccc4n3)c2)N1 [Example 12, 4-[3-(2-Quinolinylmethoxy)benzyloxy)-2,3-dihydro-1H-indol-2-one] | 0.703 | – | H1 receptor (%), inhibition rate (H1 receptor; concentration not given): 45%
17 | 7-[3-(2-Quinolinylmethoxy)benzyloxy]-3,4-dihydro-2H-1,4-benzothiazin-3-one 1,1-dioxide [Example 77] | – | – | H1 receptor (%), inhibition rate (H1 receptor; a: 100 μM): 30%; Kd (LTD4 receptor; [2]): 0.129 µM

Row | Compound | Kd (LTD4 receptor) [µM] | inhibition at 100 µM (H1 receptor; a: 100 μM) [%] | other results
18 | O=C1CCCc2cc(OCc3cccc(OCc4ccc5ccccc5n4)c3)ccc2N1 [Example 9, 7-[3-(2-Quinolinylmethoxy)benzyloxy]-2,3,4,5-tetrahydrobenz[b]azepin-2-one] | 0.148 | – | Kd (H1 receptor): 47.6 µM
19 | CN(Cc1cccc(OCc2ccc3ccccc3n2)c1)c1ccc2c(c1)SCC(=O)N2 [96(a), 7-[N-methyl-N-{3-(2-quinolinylmethoxy)benzyl}amino]-3,4-dihydro-2H-1,4-benzothiazin-3-one] | – | – | inhibition at 10 µM (H1 receptor): 4%; inhibition at 10 µM (LTD4 receptor): 9%
20 | O=C1CCc2cc(OCc3ccc(OCc4ccc5ccccc5n4)cc3)ccc2N1 [Example 22] | 1.24 | 45 | –
21 | O=C1CCc2ccc(OCc3cccc(OCc4ncc5ccccc5n4)c3)cc2N1 [Example 34, 7-[3-(2-quinazolinylmethoxy)benzyloxy]-1,2,3,4-tetrahydroquinolin-2-one] | 0.196 | – | Kd (H1 receptor): 100 µM
22 | Cc1ccc(OCc2ccc(OCc3ccc4ccccc4n3)cc2)c2c1NC(=O)C2(C)C [Example 27, 4-[4-(2-Quniolinylmethoxy)benzyloxy]-3,3,7-trimethyl-2,3-dihydydro-1H-indol-2-one] | 0.139 | 38 | –
23 | Cn1c(COc2cccc(COc3ccc4c(c3)CCCC(=O)N4)c2)nc2ccccc21 [Example 83] | 0.31 | – | inhibition at 10 µM (H1 receptor): 0%
24 | O=C1CSc2c(cccc2NC(=O)c2ccc(OCc3ccc4ccccc4n3)cc2)N1 [Example 71, 8-[4-(2-Quinolinylmethoxy)benzoylamino]-3,4-dihydro-2H-1,4-benzothiazin-3-one] | – | 28 | inhibition at 100 µM (LTD4 receptor): 0%
25 | O=C1CCc2ccc(OC(=O)c3ccc(OCc4ccc5ccccc5n4)cc3)cc2N1 [Example 65, 7-(4-(2-Quinolinylmethoxy]benzoyloxy]-1,2,3,4-tetrahydroquinolin-2-one] | – | 43 | inhibition at 100 µM (LTD4 receptor): 13%
26 | CC1(C)C(=O)Nc2cc(OCc3ccc(OCc4ccc5ccccc5n4)cc3)ccc21 [Example 28, 3,3-Dimethyl-6-[4-(2-quinolinylmethoxy)benzyloxy]-2,3-dihydro-1H-indol-2-one] | 1.4 | 30 | –
27 | O=C1CCSc2cc(OCc3cccc(OCc4ccc5ccccc5n4)c3)ccc2N1 [Example 11, 8-[3-(2-Quinolinylmethoxy)benzyloxy]-2,3,4,5-tetrahydro-1,5-benzothiazepin-4-one] | 0.022 | 47 | –
28 | O=C1CS(=O)(=O)c2cc(OCc3cccc(OCc4ccc5ccc(Cl)cc5n4)c3)ccc2N1 [Example 75] | – | 36 | LTD4 receptor (%), inhibition rate (LTD4 receptor; concentration not given): 0%
29 | O=C1CSc2cc(OCc3cccc(OCc4nc5ccccc5s4)c3)ccc2N1 [Example 40, 7-[3-(2-benzothiazolylmethoxy)benzyloxy)-3,4-dihydro-2H-1,4-benzothiazin-3-one] | 1.39 | 43 | –
30 | O=C1CSc2c(NCc3cccc(OCc4ccc5ccccc5n4)c3)cccc2N1 [Example 95, 8-[3-(2-quinolinylmethoxy)benzylamino]-3,4-dihydro-2H-1,4-benzothiazin-3-one] | 0.608 | – | inhibition at 10 µM (H1 receptor): 33%
31 | O=C1CCc2ccc(OCc3cccc(OCc4ccc5ccccc5n4)c3)cc2N1 [Example 7] | 0.209 | 46 | –
32 | CC1(C)C(=O)Nc2ccc(OC(=O)c3ccc(OCc4ccc5ccccc5n4)cc3)cc21 [Example 67, 3,3-Dimethyl-5-[4-(2-quinolinylmethoxy)benzoyloxy]-2,3-dihydro-1H-indol-2-one] | – | 49 | inhibition at 100 µM (LTD4 receptor): 52%
33 | CC1(C)C(=O)Nc2cc(OC(=O)c3cccc(OCc4ccc5ccccc5n4)c3)ccc21 [Example 60, 3,3-Dimethyl-6-[3-(2-quinolinylmethoxy)benzoyloxy]-2,3-dihydro-1H-indol-2-one] | 0.223 | 38 | –
34 | O=C1CCc2cc(OC(=O)c3cccc(OCc4ccc5ccccc5n4)c3)ccc2N1 [Example 55, 6-[3-(2-Quinolinylmethoxy)benzoyloxy]-1,2,3,4-tetrahydroquinolin-2-one] | 0.348 | 43 | –
